Results on 29 molecules are retold here after ChEMBL document CHEMBL1140081 (J Med Chem, 2008).

Data set [1] concerns Human immunodeficiency virus 1. Put plainly: Antiviral activity against HIV1 3B in human MT4 cells in presence of 50% normal human serum. In kind it is functional. Particulars: Human immunodeficiency virus 1, 3B, MT4; read-out: CIC95.
Data set [2] has as its system Human immunodeficiency virus 1. As to the kind of experiment: Antiviral activity against HIV1 3B in human MT4 cells in presence of 10% heat-inactivated fetal bovine serum. The conditions noted are these: Human immunodeficiency virus 1, 3B, read-out: CIC95.
Data set [3] has as its target Human immunodeficiency virus type 1 integrase (Human immunodeficiency virus 1, UniProt Q7ZJM1). Put plainly: Inhibition of HIV1 recombinant integrase strand transfer activity.
In data set [4] the test system is Human immunodeficiency virus 1. Put plainly: Antiviral activity against HIV1 with integrase N155S mutation by single cycle infectivity assay in presence of 10%FBS. In kind it is functional.
For data set [5], the system named is Human immunodeficiency virus 1. As to the kind of experiment: Antiviral activity against HIV1 with integrase T66I/L74M/V151I mutation by single cycle infectivity assay in presence of 10%FBS. The format is functional.
The test system of data set [6] is Human immunodeficiency virus 1. Put plainly: Antiviral activity against HIV1 with integrase T66I/S153Y mutation by single cycle infectivity assay in presence of 10%FBS. In kind it is functional.
In data set [7] the test system is Human immunodeficiency virus 1. Put plainly: Antiviral activity against HIV1 with integrase T66I/M154 mutation by single cycle infectivity assay in presence of 10%FBS. The format is functional.
The subject of data set [8] is Human immunodeficiency virus 1. As to the kind of experiment: Antiviral activity against HIV1 with integrase T125K/F121Y mutation by single cycle infectivity assay in presence of 10%FBS. The format is functional.
The nature of data set [9]: Protein binding in dog plasma. The format is ADME, cell-free, Canis lupus familiaris. The conditions noted are these: read-out: PPB (converted).
Data set [10] can be described thus: Protein binding in human plasma. The format is ADME, cell-free. The conditions noted are these: read-out: PPB (converted).
A short description of data set [11]: AUC in Sprague-Dawley rat at 3 mg/kg, po. In kind it is ADME, organism-based. Further details: dose 3 mg/kg, route oral. The conditions noted are these: plasma.
Data set [12] can be described thus: Cmax in po dosed Sprague-Dawley rat. The conditions noted are these: in vivo. In kind it is ADME, organism-based. Further details: route oral.
Data set [13] is described as follows: Protein binding in Sprague-Dawley rat plasma. Particulars: read-out: PPB (converted). The format is ADME, cell-free.
The nature of data set [14]: Protein binding in rhesus monkey plasma. In kind it is ADME, cell-free, Macaca mulatta. The conditions noted are these: read-out: PPB (converted).
Data set [15] can be described thus: Cmax in dog at 10 mg/kg, po. In kind it is ADME, organism-based, Canis lupus familiaris. Further details: dose 10 mg/kg, route oral. The conditions noted are these: in vivo.
A short description of data set [16]: Oral bioavailability in po dosed dog. The format is ADME, organism-based, Canis lupus familiaris. The conditions noted are these: in vivo.
The nature of data set [17]: AUC in dog at 10 mg/kg, po. In kind it is ADME, organism-based, Canis lupus familiaris. Further details: dose 10 mg/kg, route oral. The conditions noted are these: plasma.
Data set [18] can be described thus: Terminal half life in dog at 10 mg/kg, po. The format is ADME, organism-based, Canis lupus familiaris. Further details: dose 10 mg/kg, route oral. Particulars: in vivo, read-out: beta t1/2 (converted).
The nature of data set [19]: Oral bioavailability in po dosed Sprague-Dawley rat. In kind it is ADME, organism-based. The conditions noted are these: in vivo.
The nature of data set [20]: Cmax in Sprague-Dawley rat at 3 mg/kg, po. Particulars: in vivo. Further details: dose 3 mg/kg, route oral. The format is ADME, organism-based.
Data set [21] in a line: Plasma concentration in dog at 10 mg/kg, po after 12 hrs. In kind it is ADME, organism-based, Canis lupus familiaris. Further details: dose 10 mg/kg, route oral.
Data set [22] can be described thus: Terminal half life in po dosed Sprague-Dawley rat. The format is ADME, organism-based. The conditions noted are these: in vivo.

A value given as a limit tells only on which side of the number the result lay.

Sequence of Human immunodeficiency virus type 1 integrase (Q7ZJM1 whole entry): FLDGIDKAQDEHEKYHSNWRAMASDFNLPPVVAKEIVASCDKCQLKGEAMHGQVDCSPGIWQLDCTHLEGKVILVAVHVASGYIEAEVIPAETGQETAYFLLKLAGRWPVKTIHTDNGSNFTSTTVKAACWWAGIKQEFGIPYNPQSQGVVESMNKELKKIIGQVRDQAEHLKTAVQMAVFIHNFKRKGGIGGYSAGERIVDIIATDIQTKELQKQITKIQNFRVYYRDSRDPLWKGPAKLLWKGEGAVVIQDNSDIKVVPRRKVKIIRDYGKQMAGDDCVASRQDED

By IC50 is commonly meant the point on the concentration scale where inhibition reaches its midpoint. As for `CN(C)C(=O)NC(C)(C)c1nc(C(=O)NCc2ccc(F)cc2)c(O)c(=O)n1C`, the figures for the IC95 in data set [1] and in data set [2] were above 1000 nM and 1000 nM, respectively. Also, the 50% inhibitory concentration (IC50) in [3] came out at 18 nM.

Regarding `CNC(=O)c1nc(C(C)(C)NC(=O)C(=O)N(C)C)n(C)c(=O)c1O`, the IC95 in data set [1] and in [2] was above 10000 nM in each case. Also, the 50% inhibitory concentration (IC50) in [3] is above 5000 nM.

With `Cn1c(C(C)(C)NC(=O)c2ncccn2)nc(C(=O)NCc2ccc(F)cc2)c(O)c1=O`, the values for the IC95 in data set [1] and in data set [2] were 50 nM and 20 nM, respectively. For the same molecule, the IC50 in data set [3] amounted to 7 nM.

In the case of `Cn1c(C(C)(C)NC(=O)c2cscn2)nc(C(=O)NCc2ccc(F)cc2)c(O)c1=O`, the IC95 in data set [1] is 312 nM; in [2] it was below 78 nM. Besides, the IC50 in data set [3] was determined as 8 nM.

Take `O=C(/C=C(\O)c1nc[nH]n1)c1ccc(Cc2ccc(F)cc2)o1` [S-1360]: the Activity in data set [4] was above 50%; in data set [5], 100%; in data set [6], 50%; in [7] it was 20%; in data set [8], 50%.

Take `CN1CCOCC1c1nc(C(=O)NCc2ccc(F)cc2)c(O)c(=O)n1C` (stereo not drawn): the values for the IC95 in data set [1] and in data set [2] were 100 nM and 60 nM, respectively.

As for `Cn1c(C(C)(C)NC(=O)c2cccnn2)nc(C(=O)NCc2ccc(F)cc2)c(O)c1=O`, the IC95 was determined as 500 nM in [1] and 62 nM in [2]. Also, in data set [3], the 50% inhibitory concentration (IC50) was 15 nM.

`CN(C)C1(c2nc(C(=O)NCc3ccc(F)cc3)c(O)c(=O)n2C)CCOCC1`: the IC95 in [1] stood at 1000 nM; in data set [2], 250 nM. The IC50 in [3] was 2 nM.

As for `CN(C)C(C)(C)c1nc(C(=O)NCc2ccc(F)cc2)c(O)c(=O)n1C`, the IC95 in [1] is above 1000 nM; in data set [2], 1000 nM. For the same molecule, the IC50 in data set [3] stood at 230 nM.

Take `Cn1c(C(C)(C)NC(=O)c2cnco2)nc(C(=O)NCc2ccc(F)cc2)c(O)c1=O`: the IC95 in data set [1] and in data set [2] was 500 nM throughout. Moreover, in [3], the IC50 came to 7 nM.

Regarding `Cn1c(C(C)(C)NS(C)(=O)=O)nc(C(=O)NCc2ccc(F)cc2)c(O)c1=O`, the IC95 amounted to 1000 nM in data set [1] and 62 nM in [2]. Also, the half-inhibitory concentration (IC50) in data set [3] was 8 nM.

In the case of `CN(C)C(=O)C(=O)N(C)C(C)(C)c1nc(C(=O)NCc2ccc(F)cc2)c(O)c(=O)n1C`, the IC95 in data set [1] is 125 nM; in [2], 62 nM. Also, the IC50 in [3] was 15 nM.

For the molecule `CN(C)C(C)(C)c1nc(O)c(O)c(C(=O)NCc2ccc(F)cc2)n1`, the IC95 worked out at 78 nM in [1] and 60 nM in data set [2].

With `CN(C)C(=O)C(=O)NC(C)(C)c1nc(C(=O)NCc2ccc(F)c(Cl)c2)c(O)c(=O)n1C`, the IC95 in [1] stood at 130 nM; in data set [2], 31 nM. Further, in data set [3], the half-maximal inhibitory concentration (IC50) is 9 nM.

For the molecule `CN(C)C(=O)C(=O)NC(C)(C)c1nc(C(=O)NCc2ccc(F)cc2S(C)(=O)=O)c(O)c(=O)n1C`, the IC95 in data set [1] and in data set [2] was 125 nM throughout. Also, the IC50 in [3] worked out at 4 nM.

With `COC(=O)C(=O)NC(C)(C)c1nc(C(=O)NCc2ccc(F)cc2)c(O)c(=O)n1C`, the IC95 in [1] was above 1000 nM; in data set [2], 1000 nM. Besides, the 50% inhibitory concentration (IC50) in data set [3] is 15 nM.

In the case of `COc1cccc(CNC(=O)c2nc(C(C)(C)NC(=O)C(=O)N(C)C)n(C)c(=O)c2O)c1OC`, the IC95 in data set [1] is above 1000 nM; in data set [2], 1000 nM. Moreover, the IC50 in data set [3] worked out at 21 nM.

For the molecule `Cn1c(C(C)(C)NC(=O)c2ccccn2)nc(C(=O)NCc2ccc(F)cc2)c(O)c1=O`, the results for the IC95 in data set [1] and in data set [2] were 1000 nM and 125 nM, respectively. The IC50 in data set [3] is 20 nM.

Consider `Cn1c(C(C)(C)NC(=O)c2c[nH]cn2)nc(C(=O)NCc2ccc(F)cc2)c(O)c1=O`, for which the IC95 in [1] and in [2] was 250 nM throughout. In [3], the IC50 was determined as 6 nM.

For the molecule `O=C(NCc1ccc(F)cc1)c1nc(N2CCCCS2(=O)=O)c2cccnc2c1O`, the Activity is on record as 10% in [4]; 9% in data set [5]; 1.3% in data set [6]; 3% in data set [7]; 12% in data set [8].

By AUC is commonly meant concentration integrated over time. As usually defined, the Cmax is the peak of the concentration-time curve. `Cc1nnc(C(=O)NC(C)(C)c2nc(C(=O)NCc3ccc(F)cc3)c([O-])c(=O)n2C)o1.[Na+]`: the fraction unbound in [9] is 0.71; in [10], 0.83; in [13] it was 0.74; in data set [14] it was 0.85. This molecule came in with an AUC in [11] of 1.4 µM·h. In [12], this molecule displayed a peak concentration (Cmax) of 1000 nM.

Consider `Cc1nnc(C(=O)NC(C)(C)c2nc(C(=O)NCc3ccc(F)cc3)c(O)c(=O)n2C)[nH]1`, for which the IC95 is 1000 nM in [1] and 250 nM in data set [2]. Also, the IC50 in [3] worked out at 4 nM.

Regarding `CC(=O)NC(C)(C)c1nc(C(=O)NCc2ccc(F)cc2)c(O)c(=O)n1C`, the IC95 is 400 nM in [1] and 310 nM in [2]. Also, the IC50 in data set [3] stood at 7 nM.

Consider `Cn1c(C(C)(C)N2CCOCC2)nc(C(=O)NCc2ccc(F)cc2)c(O)c1=O`, for which the IC95 in data set [1] worked out at 500 nM; in [2], 65 nM. Also, the half-inhibitory concentration (IC50) in data set [3] is 3 nM.

What is called bioavailability is dose-corrected exposure relative to a reference, in per cent. As for `CN(C)C(=O)C(=O)NC(C)(C)c1nc(C(=O)NCc2ccc(F)cc2)c([O-])c(=O)n1C.[Na+]`, the Cmax worked out at 32000 nM in data set [15] and 4100 nM in [20]. Moreover, the fraction unbound in [9] is 0.62; in data set [10], 0.72; in [13] it was 0.65; in data set [14], 0.82. The IC95 in [1] came out at 125 nM. In addition, the values for the area under the curve (AUC) in data set [11] and in data set [17] were 2.2 µM·h and 47 µM·h, respectively. In addition, the bioavailability turned out to be 93% in data set [16] and 36% in data set [19]. The half-life in [18] is 11.9 h; in [22] it was 2.3 h. Further, in data set [21], the concentration at 12 h was 246 nM.

In the case of `CN1CCN(C(=O)C(=O)NC(C)(C)c2nc(C(=O)NCc3ccc(F)cc3)c(O)c(=O)n2C)CC1`, the IC95 in data set [1] stood at 250 nM; in data set [2] it was 125 nM. Besides, in [3], the IC50 stood at 26 nM.

On to `CN(C)S(=O)(=O)NC(C)(C)c1nc(C(=O)NCc2ccc(F)cc2)c(O)c(=O)n1C`, for which the IC95 in data set [1] stood at 500 nM; in data set [2], 125 nM. The IC50 in data set [3] worked out at 12 nM.

On to `Cn1c(C(C)(C)NC(=O)C(=O)O)nc(C(=O)NCc2ccc(F)cc2)c(O)c1=O`, for which the IC95 in [1] stood at 1000 nM; in data set [2], 250 nM. For the same molecule, the IC50 in data set [3] came out at 4 nM.

As for `Cn1c(C(C)(C)NC(=O)C(=O)N2CCOCC2)nc(C(=O)NCc2ccc(F)cc2)c(O)c1=O`, the IC95 in [1] and in [2] was 125 nM throughout. For the same molecule, in data set [3], the half-maximal inhibitory concentration (IC50) came to 20 nM.
